The values that follow come from ChEMBL document CHEMBL1150858, “Two new cytotoxic and virucidal trisulfated triterpene glycosides from the Antarctic sea cucumber Staurocucumis liouvillei” (J Nat Prod, 2001).

The test system of series [1] is Human alphaherpesvirus 1. Kind of series: Antiviral activity against HSV1 KOS in african green monkey Vero cells assessed as residual infectivity at 10 ug/mL by plaque formation assay. The series is classed as functional.
In series [2] the test system is Vero. As to the kind of experiment: Cytotoxicity against african green monkey Vero cells at 6.25 to 50 ug/mL measured after prolonged incubation by MTT assay. The following applies: chlorocebus sabaeus. Format: cell-based.
For series [3], the system named is Vero. As to the kind of experiment: Cytotoxicity against african green monkey Vero cells at 6.25 to 50 ug/mL within 8 hrs by MTT assay. The series is classed as cell-based. The following applies: chlorocebus sabaeus. (In general: Tetrazolium dyes change colour on reduction, which living cells bring about.)

Take `CO[C@@H]1[C@@H](O)[C@H](O[C@@H]2[C@@H](O)[C@H](O[C@H]3[C@H](O)[C@@H](O)[C@H](O[C@H]4[C@H](O[C@H]5CC[C@]6(C)[C@H]7CC[C@]89C(=O)O[C@@](C)(CCC=C(C)C)[C@H]8[C@@H](OC(C)=O)C[C@@]9(C)C7=CC[C@H]6C5(C)C)OC[C@@H](OS(=O)(=O)[O-])[C@@H]4O)O[C@@H]3C)O[C@H](COS(=O)(=O)[O-])[C@H]2O)O[C@H](COS(=O)(=O)[O-])[C@H]1O.[Na+].[Na+].[Na+]` [LIOUVILLOSIDE A]: the Activity in series [1] is reported as 24%; in series [2], “Toxic”; in series [3] it was “Non-toxic”.

In the case of `CO[C@@H]1[C@@H](O)[C@H](O[C@@H]2[C@@H](O)[C@H](O[C@H]3[C@H](O)[C@@H](O)[C@H](O[C@H]4[C@H](O[C@H]5CC[C@]6(C)[C@H]7CC[C@]89C(=O)O[C@@](C)(CCCC(C)C)[C@H]8[C@@H](OC(C)=O)C[C@@]9(C)C7=CC[C@H]6C5(C)C)OC[C@@H](OS(=O)(=O)[O-])[C@@H]4O)O[C@@H]3C)O[C@H](COS(=O)(=O)[O-])[C@H]2O)O[C@H](COS(=O)(=O)[O-])[C@H]1O.[Na+].[Na+].[Na+]` [LIOUVILLOSIDE B], the Activity is recorded as 2.5% in series [1], “Toxic” in series [2] and “Non-toxic” in series [3].
